# Experimental data from US20230265043A1, “CRYSTALLINE FORM OF PHENTERMINE HYDROCHLORIDE AND PROCESS FOR OBTAINING SAME” (priority 2020, published 2023).
# Structures can show the parent of a compound that is named as a salt.
# What was measured:
# Assay type in all cases: physicochemical
# [1] = dynamic water vapor adsorption (DVS) at 60%, 80% and 95% relative humidity; conditions: for gain by mass at 80% relative humidity: 25° C., equilibrium reached; for hygroscopicity classification according to the British Pharmacopoeia, Ed. 2016: based on mass gain at 80% relative humidity
# Text: (§1) In all humidity conditions, the equilibrium criterion of mass variation of less than 0.001% was reached.
# FIG. 13 presents dynamic water vapor sorption experiments under different humidity conditions for the anhydrous and monohydrate forms of phentermine hydrochloride. It is noted that in all analyzed humidity conditions, the system reached equilibrium, with the monohydrate form being much less hygroscopic than the anhydrous form. Phentermine hydrochloride in anhydrous form has a gain of about 7.5% by mass at 80% relative humidity, being classified as hygroscopic according to the British Pharmacopoeia (BF) (British Pharmacopoeia, Ed. 2016), which can cause dosing problems if the active is manipulated in high humidity conditions. In addition, the fact that the anhydrous form is hygroscopic allows its conversion to the monohydrate form in case of exposure to excessive amounts of water.
# [2] = accelerated stability study in oven, 50° C. and 75% relative humidity, 30 days
# Method: Phentermine hydrochloride monohydrate's stability was tested by keeping 25 g of sample in an oven under conditions of 50° C. and 75% relative humidity for 30 days, as recommended by the FDA guide (Food and Drug Administration, Guidance for Industry Q1A(R2) Stability Testing of New Drug Substances and Products, November 2003 rev.2).
# [3] = DSC heating and X-ray diffraction after heating (conversion of monohydrate to anhydrous form); conditions: 10° C./min, nitrogen flow, XRD after heating at 60° C.
# Method: (B), when it converts to anhydrous form.
# (§2) The Differential Scanning calorimetry (DSC) experiment (FIG. 8) is performed under an inert atmosphere using nitrogen flow. Therefore, for phentermine hydrochloride monohydrate, such flow favors water loss, and the experiment will have underestimated results.
# Furthermore, the melting of the anhydrous form occurs around 200° C. in which the active also starts the decomposition process.
# [4] = dynamic water vapor desorption, relative humidity 95% to 0% at 25° C.; conditions: desorption 95% to 0% RH in steps of 5%, 25° C. (FIG. 9)
# Method: as §1, §2
Structure (SMILES),gain by mass at 80% relative humidity ([1]; 80% relative humidity),"hygroscopicity classification according to the British Pharmacopoeia, Ed. 2016 [1]",polymorphic conversion after accelerated stability test (infrared absorption and X-ray diffraction) [2],times less hygroscopic than the anhydrous form ([1]; 80% relative humidity),temperature of conversion to the anhydrous form on heating [3],relative humidity in which the form is stable [4]
"CC(C)(N)Cc1ccccc1.Cl [2-methyl-1-phenylpropan-2-amine, reference compound]",about 7.5 % by mass,hygroscopic,,,,
"CC(C)(N)Cc1ccccc1 [Phentermine hydrochloride monohydrate, phentermine hydrochloride monohydrate]",about 0.75 % by mass,slightly hygroscopic,no polymorphic conversion,10 times,above 50 °C,higher than 50%
